In PMC7313430, “Heme-Dependent ER Stress Apoptosis: A Mechanism for the Selective Toxicity of the Dihydroartemisinin, NSC735847, in Colorectal Cancer Cells” (Frontiers in Oncology, 2020):

Experiments:
HT29 cells = assay: MTS cell viability assay, colon cancer cells HT29; assay type: cell-based, human; details: for effect of pretreatment on NSC735847-mediated cell death: HT29, MTS, pretreatment with the agent, then NSC735847 (10 μM; 5 μM for HTF) 24 h; for IC50: Homo sapiens, HT-29, MTS viability, 24 h treatment; for selective cytotoxicity toward colon cancer cells vs FHC: HT-29/HCT-116 compared to FHC
Method: (§1) The human colon cancer cell lines HT29 and HCT116 were cultured in McCoy's 5A medium (Sigma Aldrich, St. Louis, MO) containing 10% heat-inactivated fetal bovine serum (FBS), penicillin (100 units/ml), and streptomycin (100 μg/ml). The non-tumorigenic colon cell line, FHC, was cultured in DMEM: F12 (1:1) medium supplemented with 10% heat inactivated FBS, 25 mM HEPES (Thermo Fisher Scientific Inc., IL), 10 ng/ml cholera toxin (Sigma Aldrich, St. Louis, MO), 0.005 mg/ml insulin (Thermo Fisher Scientific Inc., IL), 0.005 mg/ml, transferrin (Sigma Aldrich, St. Louis, MO), 100 ng/ml hydrocortisone (Sigma Aldrich, St. Louis, MO), 20 ng/mL human recombinant epidermal growth factor (Thermo Fisher Scientific Inc., IL), 100 units/ml penicillin, and 100 μg/ml streptomycin.
(§2) Cells were cultured in 96-well-plates for 48 h before treatment. Serum-free media containing different agents was added to the cells at the concentration and time period described in the figure legend. MTS reagent (Promega, Madison, WI) was then added to each well and the absorbance was measured at 495 nm as directed by the manufacturer. In the presence of MTS reagent, the absorbance reading is proportional to the number of viable cells. The half-maximal inhibitory concentration (IC50) of the tested compounds is the concentration that reduces the viability of cells by 50%. IC50 was calculated after 24 h of treatment ([30], [31]) as described previously ([32]–[34]) from dose-response curves (log drug concentration vs. percentage viability from untreated cells) generated by non-linear regression analysis with GraphPad Prism 5 software (GraphPad Software, San Diego, California).

[1] = system: P-PERK, P-eIF2α, CHOP10, PARP, caspase-3, ferritin in HT29 cells; assay: Western blot of ER stress and apoptosis proteins in HT29; assay type: cell-based, human; details: for effect of pretreatment on NSC735847-induced CHOP10 expression: HT29, pretreatment (GSK 10 μM, salubrinal 50 μM, SA 10 mM), then 10 μM NSC735847 8 h
Method: Western blot analysis was conducted as described previously ([35]). Briefly, the cells were cultured in 100 mm dishes for 48 h before treatment. The cells were then treated as described in the figure legends. For vehicle-treated samples, DMSO was added to serum-free culture medium at a maximum concentration of 0.1% (v/v). After experimentation, the cells were washed twice with phosphate buffer saline (PBS) and then 100 μl of Triton lysis buffer [25 mM HEPES, 100 mM NaCl, 1 mM EDTA, 10% (v/v) glycerol, 1% (v/v) Triton X-100], containing protease and […] inhibitors, was added to the cells. Protein concentrations were determined by using BCA reagents (Thermo Fisher Scientific Inc., IL). Equal concentrations of each sample were loaded onto SDS–PAGE gels and protein bands transferred to nitrocellulose membranes using semi-dry transfer cells (TRANS-BLOTSD; Bio-Rad Laboratories, Hercules, CA). The membranes were incubated for 2 h at room temperature in Odyssey blocking buffer (LI-COR Biosciences, Lincoln, NE). Membranes were then incubated overnight at 4C with primary antibody followed by 1 h of incubation at room temperature with secondary antibody. All primary antibodies were used at a dilution of 1:1,000 except anti-GAPDH and anti-CHOP10 antibodies which were used at 1:10,000 and 1:500 dilutions, respectively. All secondary antibodies were used at a dilution of 1:15,000. Protein bands were visualized using Odyssey® CLx digital fluorescence imaging system (LI-COR, Lincoln, Nebraska). Band intensities were quantified by using ImageJ software ([36]).

FHC cells = assay: MTS cell viability assay, non-tumorigenic colon cells; assay type: cell-based; details: Homo sapiens, 24 h treatment
Method: as §1, §2

HCT116 cells = assay: MTS cell viability assay, colon cancer cells HCT116; assay type: cell-based, human; details: for IC50: Homo sapiens, HCT-116, MTS viability, 24 h treatment; for cytotoxic activity against HCT-116 cells: 3.1-25 μM
Method: as §1, §2

[2] = system: caspase 3/7 activity in HT29 cells; assay: Caspase-Glo 3/7 activity assay in HT29; assay type: cell-based, human; details: for tumor selectivity of apoptosis induction (caspase 3/7, words): 16 h, HT29 compared to HCT-116 and FHC; for effect of pretreatment on NSC735847-induced caspase 3/7 activity: HT29, pretreatment 1 h (GSK 10 μM, SAL 50 μM), then 10 μM NSC735847 16 h
Method: The cells were plated in white-walled 96-well-plates and then they were cultured at 37°C for 48 h. Serum-free culture medium containing the appropriate concentration of different agents was added to the cells for the indicated period of time. Caspase-Glo 3/7 reagent (Promega, Madison, WI) was added to each well and luminescence was detected as directed by the manufacturer. The Caspase-Glo 3/7 kit measures the activity of the executioner caspases 3 and 7 using the luminogenic substrate (Z-DEVD-aminoluciferin) as substrate.

[3] = system: reactive oxygen species in HT29 cells; assay: Oxidative stress measurement with CM-H2DCFDA (DCF); assay type: cell-based, human; details: HT29, 0.25 mM Trolox 2 h, then 10 μM NSC735847 8 h
Method: Oxidative stress was measured in cultured cells by using the probe, chloromethyl-2′,7′ dichlorodihydrofluorescein diacetate (CM-H2DCFDA or DCF) purchased from Life Technologies (Grand Island, NY). […] The cells were loaded with 5 μM DCF in phenol red-free, serum-free medium for 30 min and then the cells were treated with the appropriate drug for the indicated period of time. The cells were then trypsinized and resuspended in serum-containing, phenol red-free medium. The fluorescence of DCF was measured using an Accuri C6 flow cytometer (BD Accuri Cytometers, Ann Arbor, MI) at an excitation wavelength of 488 and emission of 533 ± 30 nm.

[4] = MTS, 24 h, single agents or combinations

Compound | effect of pretreatment on NSC735847-mediated cell death (HT29 cells) | IC50 (FHC cells) [µM] | IC50 (HT29 cells) [µM] | selective cytotoxicity toward colon cancer cells vs FHC (HT29 cells; MTS, 24 h) | IC50 (HCT116 cells) [µM] | tumor selectivity of apoptosis induction (caspase 3/7, words) [2] | other results
CC(=O)N(O)CCCCCNC(=O)CCC(=O)N(O)CCCCCNC(=O)CCC(=O)N(O)CCCCCN [DFO, deferoxamine, reference compound] | did not prevent NSC735847-mediated cell death |  |  |  |  |  | effect of pretreatment on NSC735847-mediated ferritin protein expression ([1]; HT29, 100 μM DFO 4 h, then 10 μM NSC735847 24 h): inhibited NSC735847-mediated ferritin expression
CC1CCC2C(C)C(OCC(COC3OC4OC5(C)CCC6C(C)CCC(C3C)C46OO5)NNC(=O)c3ccncc3)OC3OC4(C)CCC1C32OO4 (stereo not drawn) [compound (2)] |  | 23.2 ± 1.04 | 19.6 ± 1.06 | not selectively cytotoxic toward either colon cancer cell line | 22.1 ± 1.06 | increase in apoptosis in HT29 compared to HCT-116 and FHC cells | 
CC1CCC2C(C)C(OCC(COC3OC4OC5(C)CCC6C(C)CCC(C3C)C46OO5)N3CCOCC3)OC3OC4(C)CCC1C32OO4 (stereo not drawn) [compound (1)] |  | > 25 | > 25 | not selectively cytotoxic toward either colon cancer cell line | > 25 | did not exhibit tumor selectivity | 
O=C(CC(c1ccccc1)c1ccccc1)Cn1ccnc1 [QC-308, reference compound] | increased the cytotoxicity of NSC735847 |  |  |  |  |  | 
Cn1cc(-c2ccc3c(c2)CCN3C(=O)Cc2cccc(C(F)(F)F)c2)c2c(N)ncnc21 [GSK2606414, 7-methyl-5-(1-{[3-(trifluoromethyl)phenyl]acetyl}-2,3-dihydro-1H-indol-5-yl)-7H-p yrrolo[2,3-d]pyrimidin-4-amine, reference compound] | suppressed NSC735847-mediated cell death |  |  |  |  |  | effect of pretreatment on NSC735847-induced caspase 3/7 activity [2]: inhibited caspase 3/7 activity; effect of pretreatment on NSC735847-induced PERK phosphorylation ([1]; HT29, 10 μM pretreatment 1 h, then 10 μM NSC735847 1 h): decreased the phosphorylation of PERK; effect of pretreatment on NSC735847-induced CHOP10 expression [1]: decreased
HTF: iron-loaded transferrin molecule | did not enhance the killing effect of NSC735847 |  |  |  |  |  | 
CC1CCC2C(C)C(OCC(COC3OC4OC5(C)CCC6C(C)CCC(C3C)C46OO5)NCc3ccccc3)OC3OC4(C)CCC1C32OO4 (stereo not drawn) [(5)] |  | > 25 | 15.2 ± 1.12 | more cytotoxic toward HT-29 than FHC cells | > 25 | preferentially induced apoptosis in HT-29 compared to FHC cells | cytotoxic activity against HCT-116 cells (HCT116 cells; MTS, 24 h): inactive
CC(=O)CC(=O)CCC(=O)O [succinylacetone, reference compound] | rescued the cells from the cytotoxic effects of NSC735847 |  |  |  |  |  | effect of pretreatment on NSC735847-induced CHOP10 expression [1]: blunted NSC735847-induced CHOP10 expression
O=C1[O][Pt]2([NH][C@@H]3CCCC[C@H]3[NH]2)[O]C1=O [OX, oxaliplatin, reference compound] |  |  |  |  |  |  | cell death / survival of HT29 cells (HT29 cells; [4]): induced death in a concentration-dependent manner; cell death / survival of HCT116 cells (HCT116 cells; [4]): induced death in a concentration-dependent manner
O=C(/C=C/c1ccccc1)NC(NC(=S)Nc1cccc2cccnc12)C(Cl)(Cl)Cl (stereo not drawn) [salubrinal, reference compound] | blocked |  |  |  |  |  | effect of pretreatment on NSC735847-induced caspase 3/7 activity [2]: blocked; effect of pretreatment on NSC735847-induced CHOP10 expression [1]: blocked CHOP10 expression
Cc1c(C)c2c(c(C)c1O)CCC(C)(C(=O)O)O2 (stereo not drawn) [Trolox, reference compound] | did not rescue the cells from NSC735847-induced cytotoxicity |  |  |  |  |  | effect of pretreatment on NSC735847-induced oxidative stress [3]: significant reduction in oxidative stress
CC1CCC2C(C)C(OCC(COC3OC4OC5(C)CCC6C(C)CCC(C3C)C46OO5)N3CCCCC3)OC3OC4(C)CCC1C32OO4 (stereo not drawn) [(4)] |  | > 25 | > 25 | more cytotoxic toward HT-29 than FHC cells | > 25 | preferentially induced apoptosis in HT-29 compared to FHC cells | cytotoxic activity against HCT-116 cells (HCT116 cells; MTS, 24 h): inactive
